Measured values as given in patent US7265152B2 (ViroPharma Incorporated, priority 2002, dated 2007).
pEC50, pIC50: −log10 of the molar value. Like-named read-outs stand apart in the source and are kept apart here.

Columns and labels:
[1] = tested on: HCV replicon (BB7 sequence) in Huh-7-Clone A cells; assay: HCV replicon assay: ELISA of NS5A protein in replicon-containing cells (Inhibition of Viral RNA Replication); format: cell-based; settings: HCV replicon assay, read-out: Replicon
How it was run: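 EC50 taken from an 8-point serially diluted dose curve, with NS5A level as read-out: fixed cells probed with primary monoclonal and HRP-conjugated secondary, TMB developed 30 min, OD 650 nm. Compound exposure 72 h in Huh-7-Clone A replicon cells (BB7 sequence).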

HCV NS5B = target: T1, HCV NS5B (Hepatitis C virus genotype 1b, UniProt Q9WMX2); assay: Inhibition of viral RNA-dependent RNA polymerase (RdRp), in vitro biochemical assay; design: species or system HCV genotype 1b virus (BB7); settings: BB7 (genotype 1b), read-out: HCV pol-BB7 IC50
T1 construct: fusion protein, of which the carboxyl terminal 21 amino acids were removed to enhance its solubility; His tag (GSHHHHHH); made in house; host or cells: E. coli
How it was run: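 IC50 values are the concentrations that halve in vitro RNA synthesis by HCV NS5B polymerase. The enzyme was a C-terminally truncated (Δ21), His-tagged genotype 1b (BB7 consensus) protein purified from E. coli.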

[2] = Hepatitis C virus, ranges of 50% effective concentration (EC50)
[3] = HCV NS5B polymerase, values given as range classes A-D
[4] = Hepatitis C virus, ranges of EC50
[5] = HCV NS5B RdRp, reported as class symbols

Compound	pEC50 [1, 2]	pIC50 (HCV NS5B; [3])	pEC50 ([1]; ranges of 50% effective concentration (EC50))	pEC50 [1, 4]	pIC50 (HCV NS5B; [5])
CNC(=O)c1c(-c2ccc(F)cc2)oc2cc(N(C)S(C)(=O)=O)c(OCc3nnc(N)[nH]3)cc12 [Example 402, 5-(5-Amino-4H-[1,2,4]triazol-3-ylmethoxy)-2-(4-fluoro-phenyl)-6-(methanesulfonyl-methyl-amino)-benzofuran-3-carboxylic acid methylamide]	> 6.00	≥ 6.30	–	–	–
CNC(=O)c1c(-c2ccc(F)cc2)oc2cc(N(C)S(C)(=O)=O)c(OCc3nn(C)cc3Cl)cc12 [Example 403, 5-(4-Chloro-1-methyl-1H-pyrazol-3-ylmethoxy)-2-(4-fluoro-phenyl)-6-(methanesulfonyl-methyl-amino)-benzofuran-3-carboxylic acid methylamide]	> 6.00	≥ 6.30	–	–	–
CNC(=O)c1c(-c2ccc(F)cc2)oc2cc(N(C)S(C)(=O)=O)c(OCCn3cccn3)cc12 [Example 404, 2-(4-Fluoro-phenyl)-6-(methanesulfonyl-methyl-amino)-5-(2-pyrazol-1-yl-ethoxy)-benzofuran-3-carboxylic acid methylamide]	> 6.00	≥ 6.30	–	–	–
CNC(=O)c1c(-c2ccc(F)cc2)oc2cc(N(C)S(C)(=O)=O)c(OCc3ncc[nH]3)cc12 [Example 405, 2-(4-Fluoro-phenyl)-5-(1H-imidazol-2-ylmethoxy)-6-(methanesulfonyl-methyl-amino)-benzofuran-3-carboxylic acid methylamide]	> 6.00	≥ 6.30	–	–	–
CNC(=O)c1c(-c2ccc(F)cc2)oc2cc(C3NC(=O)NC3=O)c(OC)cc12 (stereo not drawn) [Example 406, 6-(2,5-Dioxo-imidazolidin-4-yl)-2-(4-fluoro-phenyl)-5-methoxy-benzofuran-3-carboxylic acid methylamide]	> 6.00	5.30 to 6.30	–	–	–
CNC(=O)c1c(-c2ccc(F)cc2)oc2cc(-c3c(C)noc3C)c(OCc3cc(C)on3)cc12 [Example 409, 6-(3,5-Dimethyl-isoxazol-4-yl)-2-(4-fluoro-phenyl)-5-(5-methyl-isoxazol-3-ylmethoxy)-benzofuran-3-carboxylic acid methylamide]	> 6.00	≥ 6.30	–	–	–
CNC(=O)c1c(-c2ccc(F)cc2)oc2cc(-c3c(C)noc3C)c(OCc3nccs3)cc12 [Example 410, 6-(3,5-Dimethyl-isoxazol-4-yl)-2-(4-fluoro-phenyl)-5-(thiazol-2-ylmethoxy)-benzofuran-3-carboxylic acid methylamide]	> 6.00	≥ 6.30	–	–	–
CNC(=O)c1c(-c2ccc(F)cc2)oc2cc(N(C)S(C)(=O)=O)c(OCC(=O)Nc3nccs3)cc12 [Example 415, 2-(4-Fluoro-phenyl)-6-(methanesulfonyl-methyl-amino)-5-(thiazol-2-ylcarbamoylmethoxy)-benzofuran-3-carboxylic acid methylamide]	> 6.00	≥ 6.30	–	–	–
CNC(=O)c1c(-c2ccc(F)cc2)oc2cc(N(C)S(C)(=O)=O)c(OCC(=O)Nc3nncs3)cc12 [Example 416, 2-(4-Fluoro-phenyl)-6-(methanesulfonyl-methyl-amino)-5-([1,3,4]thiadiazol-2-ylcarbamoylmethoxy)-benzofuran-3-carboxylic acid methylamide]	> 6.00	≥ 6.30	–	–	–
CNC(=O)c1c(-c2ccc(F)cc2)oc2cc(N(C)S(C)(=O)=O)c(OCC(=O)Nc3nc(C)c(C)s3)cc12 [Example 417, 5-[(4,5-Dimethyl-thiazol-2-ylcarbamoyl)-methoxy]-2-(4-fluoro-phenyl)-6-(methanesulfonyl-methyl-amino)-benzofuran-3-carboxylic acid methylamide]	> 6.00	≥ 6.30	–	–	–
CNC(=O)c1c(-c2ccc(F)cc2)oc2cc(NS(C)(=O)=O)c(C3CC3)cc12 [Example 418, 5-Cyclopropyl-2-(4-fluoro-phenyl)-6-methanesulfonylamino-benzofuran-3-carboxylic acid methylamide]	> 6.00	≥ 6.30	–	–	–
CNC(=O)c1c(-c2ccc(F)cc2)oc2cc(-c3c(C)noc3C)c(OCCN3CCC(C#N)CC3)cc12 [Example 419, 5-[2-(4-Cyano-piperidin-1-yl)-ethoxy]-6-(3,5-dimethyl-isoxazol-4-yl)-2-(4-fluoro-phenyl)-benzofuran-3-carboxylic acid methylamide]	> 6.00	≥ 6.30	–	–	–
CNC(=O)c1c(-c2ccc(F)cc2)oc2cc(NS(C)(=O)=O)c(-c3cccs3)cc12 [Example 420, 2-(4-Fluoro-phenyl)-6-methanesulfonylamino-5-thiophen-2-yl-benzofuran-3-carboxylic acid methylamide]	> 6.00	≥ 6.30	–	–	–
CNC(=O)COc1cc2c(C(=O)NC)c(-c3ccc(F)cc3)oc2cc1N(C)S(C)(=O)=O [Example 421, 2-(4-Fluoro-phenyl)-6-(methanesulfonyl-methyl-amino)-5-methylcarbamoyl-methoxy-benzofuran-3-carboxylic acid methylamide]	–	≥ 6.30	> 6.00	–	–
CNC(=O)c1c(-c2ccc(F)cc2)oc2cc(N(CC3(CO)CC3)S(C)(=O)=O)c(OCC3(CO)CC3)cc12 [Example 422, 2-(4-Fluoro-phenyl)-5-(1-hydroxymethyl-cyclopropylmethoxy)-6-[(1-hydroxymethyl-cyclopropylmethyl)-methanesulfonyl-amino]-benzofuran-3-carboxylic acid methylamide]	> 5.00	5.30 to 6.30	–	–	–
CCOc1cc2c(C(=O)NC)c(-c3ccc(F)cc3)oc2cc1N(CC)CC [Example 423, 6-Diethylamino-5-ethoxy-2-(4-fluoro-phenyl)-benzofuran-3-carboxylic acid methylamide]	> 6.00	≥ 6.30	–	–	–
CNC(=O)c1c(-c2ccc(F)cc2)oc2cc(N(C)S(C)(=O)=O)c(OCC(N)=O)cc12 [Example 424, 5-Carbamoylmethoxy-2-(4-fluoro-phenyl)-6-(methanesulfonyl-methyl-amino)-benzofuran-3-carboxylic acid methylamide]	> 6.00	≥ 6.30	–	–	–
CNC(=O)c1c(-c2ccc(F)cc2)oc2cc(N(C)S(C)(=O)=O)c(OCCn3nc(C)cc3C)cc12 [Example 425, 5-[2-(3,5-Dimethyl-pyrazol-1-yl)-ethoxy]-2-(4-fluoro-phenyl)-6-(methanesulfonyl-methyl-amino)-benzofuran-3-carboxylic acid methylamide]	> 6.00	≥ 6.30	–	–	–
CNC(=O)c1c(-c2ccc(F)cc2)oc2cc(NS(C)(=O)=O)c(-c3ccco3)cc12 [Example 426, 2-(4-Fluoro-phenyl)-5-furan-2-yl-6-methanesulfonylamino-benzofuran-3-carboxylic acid methylamide]	> 6.00	≥ 6.30	–	–	–
CNC(=O)c1c(-c2ccc(F)cc2)oc2cc(-c3c(C)noc3C)c(OCc3nnnn3C)cc12 [Example 427, 6-(3,5-Dimethyl-isoxazol-4-yl)-2-(4-fluoro-phenyl)-5-(1-methyl-1H-tetrazol-5-ylmethoxy)-benzofuran-3-carboxylic acid methylamide]	> 6.00	≥ 6.30	–	–	–
CNC(=O)c1c(-c2ccc(F)cc2)oc2cc(-c3c(C)noc3C)c(OCC3CC3)cc12 [Example 428, 5-Cyclopropylmethoxy-6-(3,5-dimethyl-isoxazol-4-yl)-2-(4-fluoro-phenyl)-benzofuran-3-carboxylic acid methylamide]	> 6.00	≥ 6.30	–	–	–
CNC(=O)c1c(-c2ccc(F)cc2)oc2cc(-c3c(C)noc3C)c(OCc3c(C)noc3C)cc12 [Example 429, 6-(3,5-Dimethyl-isoxazol-4-yl)-5-(3,5-dimethyl-isoxazol-4-ylmethoxy)-2-(4-fluoro-phenyl)-benzofuran-3-carboxylic acid methylamide]	> 6.00	≥ 6.30	–	–	–
CNC(=O)c1c(-c2ccc(F)cc2)oc2ccc(OCc3cscn3)cc12 [Example 435, 2-(4-Fluoro-phenyl)-5-(thiazol-4-ylmethoxy)-benzofuran-3-carboxylic acid methylamide]	< 4.52	5.30 to 6.30	–	–	–
CNC(=O)c1c(-c2ccc(F)cc2)oc2cc(C(=O)CO)c(OC)cc12 [Example 436, 2-(4-Fluoro-phenyl)-6-(2-hydroxy-acetyl)-5-methoxy-benzofuran-3-carboxylic acid methylamide]	> 5.00	≥ 6.30	–	–	–
CNC(=O)c1c(-c2ccc(F)cc2)oc2cc(N(C)S(C)(=O)=O)c(C3CC3)cc12 [Example 437, 5-Cyclopropyl-2-(4-fluoro-phenyl)-6-(methanesulfonyl-methyl-amino)-benzofuran-3-carboxylic acid methylamide]	–	–	–	> 6.00	≥ 6.30
CNC(=O)c1c(-c2ccc(F)cc2)oc2cc(NS(C)(=O)=O)c(C3CCCO3)cc12 (stereo not drawn) [Example 441, 2-(4-Fluoro-phenyl)-6-methanesulfonylamino-5-(tetrahydro-furan-2-yl)-benzofuran-3-carboxylic acid methylamide]	–	–	–	> 6.00	≥ 6.30
CNC(=O)c1c(-c2ccc(F)cc2)oc2cc(C3CCOC3)c(OC)cc12 (stereo not drawn) [Example 442, 2-(4-Fluoro-phenyl)-5-methoxy-6-(tetrahydro-furan-3-yl)-benzofuran-3-carboxylic acid methylamide]	–	–	–	> 6.00	≥ 6.30
